The source of these data is article PMC7343616 (The FEBS journal, 2020).

SMILES strings stand for the structures.

For one experiment, the target named is wild-type PR. The conditions noted are these: read-out: Ki for PR, ref Park et al. 2016. Biochemistry [18]; cited from earlier work.
The target of experiment [1] is PRS5B (Human immunodeficiency virus 1, UniProt P03367, A522V/A571V/C567A/C595A/E521D/E535N/G573T/I584V/L510I/L524M/M536I/N583D/Q507K/V511I, form not given). In words: FRET-based enzyme kinetic inhibition assay. In kind it is biochemical, HIV-1. The conditions noted are these: read-out: Ki for PRS5B; FRET substrate, 50 mM MES pH 5.6, 37°C; mean ± SD (n=3–5).
The subject of a further experiment is PR^S17. The conditions noted are these: Ki for mutant/Ki for wild-type; ref Park et al. 2016. Biochemistry [18]; cited from earlier work.
The subject of experiment [2] is PRS5B. Put plainly: FRET-based enzyme kinetic inhibition assay. In kind it is biochemical, HIV-1. Particulars: Ki for mutant/Ki for wild-type.
Another experiment deals with isolate with PRS5B. Particulars: ref Stanford HIV database; cited from earlier work.

The Ki is a measure of affinity in units of concentration, obtained from inhibition or displacement. For `CC(C)(C)NC(=O)[C@@H]1C[C@@H]2CCCC[C@@H]2CN1C[C@@H](O)[C@H](Cc1ccccc1)NC(=O)[C@H](CC(N)=O)NC(=O)c1ccc2ccccc2n1` [SQV, saquinavir], the Ki at wild-type PR is 0.39 nM.

`CC(C)CN(C[C@@H](O)[C@H](Cc1ccccc1)NC(=O)O[C@H]1CCOC1)S(=O)(=O)c1ccc(N)cc1` [APV, amprenavir]: the Ki on wild-type PR is 0.2 nM.

Consider `Cc1c(O)cccc1C(=O)N[C@@H](CSc1ccccc1)[C@H](O)CN1C[C@H]2CCCC[C@H]2C[C@H]1C(=O)NC(C)(C)C` [NFV, nelfinavir], for which the Ki at wild-type PR is 0.36 nM.

Turning to `CC(C)CN(C[C@@H](O)[C@H](Cc1ccccc1)NC(=O)O[C@H]1CO[C@H]2OCC[C@H]21)S(=O)(=O)c1ccc(N)cc1` [DRV, darunavir], the Ki at wild-type PR is 0.005 nM.

In the case of `COC(=O)N[C@H](C(=O)N[C@@H](Cc1ccccc1)[C@@H](O)CN(Cc1ccc(-c2ccccn2)cc1)NC(=O)[C@@H](NC(=O)OC)C(C)(C)C)C(C)(C)C` [ATV, atazanavir], the Ki was 8.4 ± 0.9 nM at PRS5B [1] and 0.035 nM at wild-type PR. Also, the “PR^S17 Ki fold change” value in the experiment on PR^S17 is recorded as 2,000 fold.

Take `CCC[C@@]1(CCc2ccccc2)CC(O)=C([C@H](CC)c2cccc(NS(=O)(=O)c3ccc(C(F)(F)F)cn3)c2)C(=O)O1` [TPV, tipranavir]: the Ki on PRS5B [1] came out at 8.6 ± 1.2 nM.

Regarding `CC(C)(C)NC(=O)[C@@H]1CN(Cc2cccnc2)CCN1C[C@@H](O)C[C@@H](Cc1ccccc1)C(=O)N[C@H]1c2ccccc2C[C@H]1O` [IDV, indinavir], the Ki at wild-type PR was 0.25 nM.

For `Cc1cccc(C)c1OCC(=O)N[C@@H](Cc1ccccc1)[C@@H](O)C[C@H](Cc1ccccc1)NC(=O)[C@H](C(C)C)N1CCCNC1=O` [LPV, lopinavir], the values for the Ki at PRS5B [1] and on wild-type PR were 160 ± 10 nM and 0.02 nM, respectively. In addition, the “PRS5B Ki fold change” value in the experiment with PRS5B [2] is on record as 8,000 fold. Further, the “PR^S17 Ki fold change” value in the experiment with PR^S17 is on record as 3,650 fold. The “resistance in PhenoSense assay” value in the experiment with isolate with PRS5B was “significant resistance, although not the highest level”.
